According to article PMC11596972, “Synthesis and Antimicrobial Activity of 3-Alkylidene-2-Indolone Derivatives” (Molecules, 2024):
≈ marks a conversion by molar mass, not a printed value. Like-named read-outs stand apart in the source and are kept apart here.

Tests used:
[1] = system: E. coli 1924; assay: MIC, double dilution method, E. coli 1924; assay type: cell-based, Escherichia coli
[2] = system: MRSA ATCC 43300; assay: MIC, double dilution method, MRSA ATCC 43300; assay type: cell-based, Methicillin-resistant Staphylococcus aureus; details: MRSA ATCC 43300, Gram-positive, 24 h culture
[3] = system: E. coli ATCC 25922; assay: MIC, double dilution method, E. coli ATCC 25922; assay type: cell-based; details: Escherichia coli
[4] = system: C. albicans CMCC 98001; assay: MIC, double dilution method, C. albicans CMCC 98001; assay type: cell-based, Candida albicans; details: for MIC: C. albicans CMCC 98001, fungus, 24 h culture
[5] = system: P. aeruginosa CMCC 10211; assay: MIC, double dilution method, P. aeruginosa CMCC 10211; assay type: cell-based; details: Pseudomonas aeruginosa
[6] = system: S. aureus ATCC 6538; assay: MIC, double dilution method, S. aureus ATCC 6538; assay type: cell-based; details: Staphylococcus aureus, ATCC6538, 24 h
[7] = system: S. aureus 4220; assay: MIC, double dilution method, S. aureus 4220; assay type: cell-based; details: Staphylococcus aureus, 4220, 24 h
[8] = system: Candida albicans CMCC 98001; assay: Minimum fungicidal concentration, C. albicans CMCC 98001; assay type: cell-based
Method: (§1) Moreover, minimum bactericidal concentration (MBC (μg/mL)) or minimum fungicidal concentration (MFC (μg/mL)) assays were performed for the promising compounds 10d, 10f, 10g and 10h against Staphylococcus aureus ATCC 6538, Staphylococcus aureus 4220, Staphylococcus aureus ATCC 43300 and Candida albicans CMCC 98001, and shown in Table 2.
(§2) The minimum bactericidal concentration (MBC) or minimum fungicidal concentration (MFC) was determined as described, following the MIC assay, by subculturing 5 μL of the compounds from wells showing no visible growth onto fresh agar plates. The plates were incubated at 37 °C for 24 h.

[9] = system: Staphylococcus aureus ATCC 6538; assay: Minimum bactericidal concentration, S. aureus ATCC 6538; assay type: cell-based; details: ATCC6538, 99.9% reduction of inoculum
Method: as §1, §2

[10] = Cytotoxicity, MTT assay, HepG2; assay type: cell-based; details: human, HepG2 cells, 48 h incubation
Method: (§3) The cytotoxicity of the most bioactive compounds 10f, 10g and 10h were evaluated in vitro against the HepG2 cell line (human hepatocellular carcinoma cell line) and the L-02 cell line (normal liver cell line) by 3-(4,5-dimethylthiazol-2-yl)-2,5-diphenyltetrazolium bromide (MTT) assay. The obtained results were presented by the inhibitory concentration that reduces the viability of the cell population to 50% of the maximal viability (IC50).
(§4) HepG2 cells and L-02 cells (ATCC, Manassas, VA, USA) were plated in 96-well plates at a density of 30–40% to ensure exponential growth throughout the experimental period, and then allowed to adhere for 1 day. Next, the cells were treated with eight concentrations (100, 50, 25, 10, 5, 1, 0.1, and 0.01 μmol/L) of each compound. After 48 h of incubation, MTT solution was added to each well at a final concentration of 2 mg/mL and incubated for an additional 4 h. Next, the MTT solution was removed and […] of dimethyl sulphoxide (DMSO)/well was added (Sigma-Aldrich, St. Louis, MO, USA). The plates were shaken vigorously at RT to ensure complete solubilization, and absorption at 492 nm was determined by a microplate reader (BioTek Instruments, Inc., Winooski, VT, USA). At least three independent experiments were conducted.

[11] = Cytotoxicity, MTT assay, L-02; assay type: cell-based; details: human, L-02 cells (normal liver cell line), 48 h incubation
Method: as §3, §4

[12] = system: Staphylococcus aureus 4220; assay: Minimum bactericidal concentration, S. aureus 4220; assay type: cell-based; details: 99.9% reduction of inoculum
Method: as §1, §2

[13] = Escherichia coli, E. coli 1924, Gram-negative, 24 h culture, read-out: MIC
[14] = Staphylococcus aureus, 24 h, read-out: MIC
[15] = ATCC25922, E. coli ATCC 25922, Gram-negative, 24 h culture, read-out: MIC
[16] = Candida albicans, CMCC98001, 24 h, read-out: MIC
[17] = CMCC10211, P. aeruginosa CMCC 10211, Gram-negative, 24 h culture, read-out: MIC
[18] = S. aureus ATCC 6538, Gram-positive, 24 h culture, read-out: MIC
[19] = S. aureus 4220, Gram-positive, 24 h culture, read-out: MIC
[20] = Candida albicans, CMCC98001, 24 h

## C/C(O)=C1/C(=O)N(C)c2ccccc21 [Compound 5a, (Z)-3-(1-hydroxyethylidene)-1-methylindolin-2-one]
[1]; [13]
  MIC: 64 mg/L (≈ 338 µM)
[2]; [14]
  MIC: > 64 mg/L
[3]; [15]
  MIC: > 64 mg/L
[4]; [16]
  MIC: 32 mg/L (≈ 169 µM)
[5]; [17]
  MIC: 64 mg/L (≈ 338 µM)
[6]; [18]
  MIC: > 64 mg/L
[7]; [19]
  MIC: 64 mg/L (≈ 338 µM)
other
  melting point: 95 to 97 °C

## CN1C(=O)/C(=C(\O)c2cccs2)c2ccccc21 [Compound 10a, (Z)-3-(hydroxy(thiophen-2-yl)methylene)-1-methylindolin-2-one]
[1]; [13]
  MIC: 32 mg/L (≈ 124 µM)
[2]; [14]
  MIC: 64 mg/L (≈ 249 µM)
[3]; [15]
  MIC: > 64 mg/L
[4]; [16]
  MIC: 64 mg/L (≈ 249 µM)
[5]; [17]
  MIC: 64 mg/L (≈ 249 µM)
[6]; [18]
  MIC: 64 mg/L (≈ 249 µM)
[7]; [19]
  MIC: > 64 mg/L
other
  melting point: 141 to 143 °C

## CN1C(=O)/C(=C(\O)c2ccccc2)c2ccccc21 [Compound 10b, (Z)-3-(hydroxy(phenyl)methylene)-1-methylindolin-2-one]
[1]; Escherichia coli, 1924, 24 h
  MIC: 8 mg/L (≈ 31.8 µM)
[2]; Staphylococcus aureus, 24 h
  MIC: 32 mg/L (≈ 127 µM)
[3]; ATCC25922, 24 h
  MIC: 64 mg/L (≈ 255 µM)
[4]; [20]
  MIC: > 64 mg/L
[5]; CMCC10211, 24 h
  MIC: > 64 mg/L
[6]
  MIC: 8 mg/L (≈ 31.8 µM)
[7]
  MIC: 32 mg/L (≈ 127 µM)

## Cc1ccc(/C(O)=C2/C(=O)N(C)c3ccccc32)cc1 [Compound 10c, (Z)-3-(hydroxy(p-tolyl)methylene)-1-methylindolin-2-one]
[1]; Escherichia coli, 1924, 24 h
  MIC: 8 mg/L (≈ 30.2 µM)
[2]
  MIC: 16 mg/L (≈ 60.3 µM)
[2]; listed as 10v
  MIC: 0.5 to 16 mg/L
[3]; ATCC25922, 24 h
  MIC: 64 mg/L (≈ 241 µM)
[4]; [20]
  MIC: 64 mg/L (≈ 241 µM)
[5]; CMCC10211, 24 h
  MIC: > 64 mg/L
[6]
  MIC: 2 mg/L (≈ 7.54 µM)
[7]
  MIC: 8 mg/L (≈ 30.2 µM)

## CN1C(=O)/C(=C(\O)c2ccc(F)cc2)c2ccccc21 [Compound 10d, (Z)-3-((4-fluorophenyl)(hydroxy)methylene)-1-methylindolin-2-one]
[8]
  MFC/MIC: 2
[8]; CMCC98001, 99.9% reduction of inoculum
  MFC: 16 mg/L (≈ 59.4 µM)
[1]; Escherichia coli, 1924, 24 h
  MIC: 8 mg/L (≈ 29.7 µM)
[2]; Staphylococcus aureus, 24 h
  MIC: 32 mg/L (≈ 119 µM)
[3]; ATCC25922, 24 h
  MIC: 64 mg/L (≈ 238 µM)
[4]; C. albicans CMCC 98001
  antifungal activity (class in words): moderate antifungal activity
[4]
  MIC: 8 mg/L (≈ 29.7 µM)
[4]; [20]
  MIC: 8 to 16 mg/L (≈ 29.7 to 59.4 µM)
[5]; CMCC10211, 24 h
  MIC: > 64 mg/L
[6]
  MIC: 4 mg/L (≈ 14.9 µM)
[7]
  MIC: 16 mg/L (≈ 59.4 µM)

## CN1C(=O)/C(=C(\O)c2ccc(Cl)cc2)c2ccccc21 [Compound 10e, (Z)-3-((4-chlorophenyl)(hydroxy)methylene)-1-methylindolin-2-one]
[1]; Escherichia coli, 1924, 24 h
  MIC: 8 mg/L (≈ 28 µM)
[2]; Staphylococcus aureus, 24 h
  MIC: 16 mg/L (≈ 56 µM)
[3]; ATCC25922, 24 h
  MIC: 64 mg/L (≈ 224 µM)
[4]; [20]
  MIC: 64 mg/L (≈ 224 µM)
[5]; CMCC10211, 24 h
  MIC: > 64 mg/L
[6]
  MIC: 2 mg/L (≈ 7 µM)
[7]
  MIC: 8 mg/L (≈ 28 µM)

## Cc1cccc2c1N(C)C(=O)/C2=C(\O)c1ccc(Cl)cc1 [Compound 10f, (Z)-3-((4-chlorophenyl)(hydroxy)methylene)-1,7-dimethylindolin-2-one]
[9]
  MBC: 32 mg/L (≈ 107 µM)
[1]; Escherichia coli, 1924, 24 h
  MIC: 8 mg/L (≈ 26.7 µM)
[2]; Staphylococcus aureus, 24 h
  MIC: 2 mg/L (≈ 6.67 µM)
[10]
  IC50 at 48 h: > 100 µM
[11]
  IC50 at 48 h: > 100 µM
[3]; ATCC25922, 24 h
  MIC: > 64 mg/L
[4]; [20]
  MIC: > 64 mg/L
[5]; CMCC10211, 24 h
  MIC: > 64 mg/L
[6]
  MIC: 0.5 mg/L (≈ 1.67 µM)
[7]
  MIC: 4 mg/L (≈ 13.3 µM)

## CN1C(=O)/C(=C(\O)c2ccc(Cl)cc2)c2cccc(Br)c21 [Compound 10g, (Z)-7-bromo-3-((4-chlorophenyl)(hydroxy)methylene)-1-methylindolin-2-one]
[1]; Escherichia coli, 1924, 24 h
  MIC: 1 mg/L (≈ 2.74 µM)
[2]; Staphylococcus aureus, 24 h
  MIC: 0.5 mg/L (≈ 1.37 µM)
[10]
  IC50 at 48 h: > 100 µM
[11]
  IC50 at 48 h: > 100 µM
[3]; ATCC25922, 24 h
  MIC: 64 mg/L (≈ 176 µM)
[4]; [20]
  MIC: > 64 mg/L
[12]
  MBC: 32 mg/L (≈ 87.8 µM)
[5]; CMCC10211, 24 h
  MIC: > 64 mg/L
[6]
  MIC: 2 mg/L (≈ 5.49 µM)
[7]
  MIC: 0.5 mg/L (≈ 1.37 µM)
